From patent US8263598B2, “Substituted sulfonamide compounds” (Gruenenthal GmbH, priority 2008, dated 2012)

Tests used:
[1] = target: T1, human B1R receptor (hB1R) (Homo sapiens, UniProt P46663); experiment: FLIPR Ca2+ assay on human bradykinin 1 receptor (CHO K1 hB1R cells); type: cell-based; conditions: test substance 10 μM; CHO K1 cells with human B1R gene; agonist Lys-Des-Arg9-bradykinin 0.5 nM; compared to maximum achievable inhibition
T1 construct: host or cells: CHO K1 cells
T1 sequence (P46663 1-353): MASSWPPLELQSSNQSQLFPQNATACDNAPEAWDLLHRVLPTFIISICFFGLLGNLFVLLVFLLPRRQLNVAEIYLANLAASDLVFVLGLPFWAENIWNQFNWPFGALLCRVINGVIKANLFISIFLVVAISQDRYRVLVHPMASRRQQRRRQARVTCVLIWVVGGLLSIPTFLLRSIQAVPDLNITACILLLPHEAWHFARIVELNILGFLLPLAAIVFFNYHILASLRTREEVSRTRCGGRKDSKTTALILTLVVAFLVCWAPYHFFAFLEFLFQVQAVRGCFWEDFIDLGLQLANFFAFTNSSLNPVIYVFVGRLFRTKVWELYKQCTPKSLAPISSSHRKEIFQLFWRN
Outline: (§1)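 Values are percent inhibition of agonist-evoked Ca²⁺ influx, measured by Fluo-4 fluorescence peak in FLIPR relative to maximum achievable inhibition. Compound at 10 μM was preincubated 10 min on B1R-transfected CHO K1 cells before challenge with 0.5 nM Lys-Des-Arg9-bradykinin (human) or 100 nM Des-Arg9-bradykinin (rat).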

[2] = target: T2, B1R receptor of rats (rB1R) (Rattus norvegicus, UniProt P97583); experiment: FLIPR Ca2+ assay on rat bradykinin 1 receptor (CHO K1 rB1R cells); type: cell-based; conditions: test substance 10 μM; CHO K1 cells with B1R gene of rats; agonist Des-Arg9-bradykinin 100 nM; compared to maximum achievable inhibition
T2 construct: host or cells: CHO K1 cells
T2 sequence (P97583 1-337): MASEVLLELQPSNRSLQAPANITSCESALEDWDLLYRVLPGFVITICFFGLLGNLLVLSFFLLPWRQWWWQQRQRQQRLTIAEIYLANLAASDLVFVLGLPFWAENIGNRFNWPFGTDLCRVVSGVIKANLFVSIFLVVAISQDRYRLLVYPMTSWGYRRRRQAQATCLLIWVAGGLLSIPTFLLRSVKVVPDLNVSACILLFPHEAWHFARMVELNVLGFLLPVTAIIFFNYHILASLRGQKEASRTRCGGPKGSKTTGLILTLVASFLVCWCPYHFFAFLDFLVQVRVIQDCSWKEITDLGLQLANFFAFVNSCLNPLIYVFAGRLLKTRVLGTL
Outline: as §1

inhibition at 10 µM [1] [%] | inhibition at 10 µM [2] [%] | hB1R [10 μM] % Inhibition [1] [%] | rB1R [10 μM] % Inhibition [2] [%] | Compound
100 | 97 |  |  | COc1cc(C)c(S(=O)(=O)N(C)CCOCC(=O)N2CCn3c(CCc4ccncc4)ccc3C2)c(C)c1 [Example 172, 4-Methoxy-N,2,6-trimethyl-N-(2-(2-oxo-2-(6-(2-(pyridin-4-yl)ethyl)-3,4-dihydropyrrolo[1,2-a]pyrazin-2(1H)-yl)ethoxy)ethyl)benzenesulfonamide]
20 | 75 |  |  | O=C(CC(NS(=O)(=O)c1ccc2ccccc2c1)c1ccccc1)N1CCn2c(CCc3ccncc3)ccc2C1 (centres unmarked) [Example 173, N-(3-Oxo-1-phenyl-3-(6-(2-(pyridin-4-yl)ethyl)-3,4-dihydropyrrolo[1,2-a]pyrazin-2(1H)-yl)propyl)naphthalene-2-sulfonamide]
100 | 94 |  |  | COc1cc(C)c(S(=O)(=O)N(C)CCOCC(=O)N2CCn3c(Cc4cccnc4)ccc3C2)c(C)c1 [Example 174, 4-Methoxy-N,2,6-trimethyl-N-(2-(2-oxo-2-(6-(pyridin-3-ylmethyl)-3,4-dihydropyrrolo[1,2-a]pyrazin-2(1H)-yl)ethoxy)ethyl)benzenesulfonamide]
100 | 102 |  |  | COc1cc(C)c(S(=O)(=O)N(C)CCOCC(=O)N2CCn3cc(-c4ccncc4)nc3C2)c(C)c1 [Example 175, 4-Methoxy-N,2,6-trimethyl-N-(2-(2-oxo-2-(2-(pyridin-4-yl)-5,6-dihydroimidazo[1,2-a]pyrazin-7(8H)-yl)ethoxy)ethyl)benzenesulfonamide]
45 | 87 |  |  | O=C(CC(NS(=O)(=O)c1ccc2ccccc2c1)c1ccccc1)N1CCn2c(Cc3cccnc3)ccc2C1 (centres unmarked) [Example 176, N-(3-Oxo-1-phenyl-3-(6-(pyridin-3-ylmethyl)-3,4-dihydropyrrolo[1,2-a]pyrazin-2(1H)-yl)propyl)naphthalene-2-sulfonamide]
99 | 97 |  |  | COc1cc(C)c(S(=O)(=O)N(C)CCOCC(=O)N2CCn3c(ccc3-c3ccncc3)C2)c(C)c1 [Example 177, 4-Methoxy-N,2,6-trimethyl-N-(2-(2-oxo-2-(6-(pyridin-4-yl)-3,4-dihydropyrrolo[1,2-a]pyrazin-2(1H)-yl)ethoxy)ethyl)benzenesulfonamide]
99 | 100 |  |  | COc1cc(C)c(S(=O)(=O)N(C)CCOCC(=O)N2CCn3cc(CCc4ccncc4)nc3C2)c(C)c1 [Example 178, 4-Methoxy-N,2,6-trimethyl-N-(2-(2-oxo-2-(2-(2-(pyridin-4-yl)ethyl)-5,6-dihydroimidazo[1,2-a]pyrazin-7(8H)-yl)ethoxy)ethyl)benzenesulfonamide]
100 | 100 |  |  | COc1cc(C)c(S(=O)(=O)N(C)CCOCC(=O)N2CCn3cc(Cc4ccncc4)nc3C2)c(C)c1 [Example 179, 4-Methoxy-N,2,6-trimethyl-N-(2-(2-oxo-2-(2-(pyridin-4-ylmethyl)-5,6-dihydroimidazo[1,2-a]pyrazin-7(8H)-yl)ethoxy)ethyl)benzenesulfonamide]

Second part, the compound before the results:

Compound | inhibition at 10 µM [1] [%] | inhibition at 10 µM [2] [%] | hB1R [10 μM] % Inhibition [1] [%] | rB1R [10 μM] % Inhibition [2] [%]
COc1cc(C)c(S(=O)(=O)N(C)CCOCC(=O)N2CCn3c(CN(C)C)ccc3C2Cc2ccccc2)c(C)c1C (centres unmarked) [Example 151, N-(2-(2-(1-benzyl-6-((dimethylamino)methyl)-3,4-dihydropyrrolo[1,2-a]pyrazin-2(1H)-yl)-2-oxoethoxy)ethyl)-4-methoxy-N,2,3,6-tetramethylbenzene-sulfonamide] | 102 | 103 |  | 
CCC1c2cccn2CCN1C(=O)COCCN(C)S(=O)(=O)c1c(C)cc(OC)c(C)c1C (centres unmarked) [Example 152, N-(2-(2-(1-ethyl-3,4-dihydropyrrolo[1,2-a]pyrazin-2(1H)-yl)-2-oxoethoxy)ethyl)-4-methoxy-N,2,3,6-tetramethylbenzenesulfonamide] | 102 | 102 |  | 
COc1cc(C)c(S(=O)(=O)N(C)CCOCC(=O)N2CCn3cccc3C2C(C)C)c(C)c1C (centres unmarked) [Example 153, N-(2-(2-(1-isopropyl-3,4-dihydropyrrolo[1,2-a]pyrazin-2(1H)-yl)-2-oxoethoxy)ethyl)-4-methoxy-N,2,3,6-tetramethylbenzenesulfonamide] | 103 | 103 |  | 
CCCC1c2cccn2CCN1C(=O)COCCN(Cc1ccccc1)S(=O)(=O)c1c(C)cc(OC)cc1C (centres unmarked) [Example 154, N-benzyl-4-methoxy-2,6-dimethyl-N-(2-(2-oxo-2-(1-propyl-3,4-dihydropyrrolo[1,2-a]pyrazin-2(1H)-yl)ethoxy)ethyl)benzenesulfonamide] | 23 | 87 |  | 
COc1cc(C)c(S(=O)(=O)N(CCOCC(=O)N2CCn3cccc3C2C(C)C)Cc2ccccc2)c(C)c1 (centres unmarked) [Example 155, N-benzyl-N-(2-(2-(1-isopropyl-3,4-dihydropyrrolo[1,2-a]pyrazin-2(1H)-yl)-2-oxoethoxy)ethyl)-4-methoxy-2,6-dimethylbenzenesulfonamide] | 75 | 101 |  | 
CCC1c2cccn2CCN1C(=O)C[C@@H](NS(=O)(=O)c1ccc2ccccc2c1)c1ccccc1 (stereo partly drawn) [Example 162, N-((1R)-3-(1-Ethyl-3,4-dihydropyrrolo[1,2-a]pyrazin-2(1H)-yl)-3-oxo-1-phenylpropyl)naphthalene-2-sulfonamide] | 57 | 98 |  | 
COc1cc(C)c(S(=O)(=O)N(C)CCOCC(=O)N2CCn3c(Cc4ccncc4)ccc3C2)c(C)c1 [Example 165, 4-Methoxy-N,2,6-trimethyl-N-(2-(2-oxo-2-(6-(pyridin-4-ylmethyl)-3,4-dihydropyrrolo[1,2-a]pyrazin-2(1H)-yl)ethoxy)ethyl)benzenesulfonamide] | 100 | 99 |  | 
COc1cc(C)c(S(=O)(=O)N(C)CCOCC(=O)N2CCn3c(ccc3-c3cccnc3)C2)c(C)c1 [Example 166, 4-Methoxy-N,2,6-trimethyl-N-(2-(2-oxo-2-(6-(pyridin-3-yl)-3,4-dihydropyrrolo[1,2-a]pyrazin-2(1H)-yl)ethoxy)ethyl)benzenesulfonamide] | 100 | 99 |  | 
O=C(CC(NS(=O)(=O)c1ccc2ccccc2c1)c1ccccc1)N1CCn2c(ccc2-c2cccnc2)C1 (centres unmarked) [Example 167, N-(3-Oxo-1-phenyl-3-(6-(pyridin-3-yl)-3,4-dihydropyrrolo[1,2-a]pyrazin-2(1H)-yl)propyl)naphthalene-2-sulfonamide] | 32 | 70 |  | 
O=C(CC(NS(=O)(=O)c1ccc2ccccc2c1)c1ccccc1)N1CCn2c(ccc2-c2ccncc2)C1 (centres unmarked) [Example 168, N-(3-Oxo-1-phenyl-3-(6-(pyridin-4-yl)-3,4-dihydropyrrolo[1,2-a]pyrazin-2(1H)-yl)propyl)naphthalene-2-sulfonamide] | 55 | 57 |  | 
O=C(CC(NS(=O)(=O)c1ccc2ccccc2c1)c1ccccc1)N1CCn2c(Cc3ccncc3)ccc2C1 (centres unmarked) [Example 169, N-(3-Oxo-1-phenyl-3-(6-(pyridin-4-ylmethyl)-3,4-dihydropyrrolo[1,2-a]pyrazin-2(1H)-yl)propyl)naphthalene-2-sulfonamide] | 78 | 98 |  | 
COc1cc(C)c(S(=O)(=O)N(C)CCOCC(=O)N2CCn3c(CCc4cccnc4)ccc3C2)c(C)c1 [Example 170, 4-Methoxy-N,2,6-trimethyl-N-(2-(2-oxo-2-(6-(2-(pyridin-3-yl)ethyl)-3,4-dihydropyrrolo[1,2-a]pyrazin-2(1H)-yl)ethoxy)ethyl)benzenesulfonamide] | 99 | 98 |  | 
O=C(CC(NS(=O)(=O)c1ccc2ccccc2c1)c1ccccc1)N1CCn2c(CCc3cccnc3)ccc2C1 (centres unmarked) [Example 171, N-(3-Oxo-1-phenyl-3-(6-(2-(pyridin-3-yl)ethyl)-3,4-dihydropyrrolo[1,2-a]pyrazin-2(1H)-yl)propyl)naphthalene-2-sulfonamide] | 30 | 99 |  | 
N-benzyl-N-(2-(2-(6-((dimethylamino)methyl)-1-ethyl-3,4-dihydropyrrolo[1,2-a]pyrazin-2(1H)-yl)-2-oxoethyl)ethyl)-4-methoxy-2,3,6-trimethylbenzenesulfonamide [Example 122] |  |  | 101 | 101
